Test system: HCV
Assay: Clinical trials, antiviral activity
Assay type: in vivo, Hepatitis C virus

SMILES: CCC[C@H](NC(=O)[C@@H]1[C@H]2CCC[C@H]2CN1C(=O)[C@@H](NC(=O)[C@@H](NC(=O)c1cnccn1)C1CCCCC1)C(C)(C)C)C(=O)C(=O)NC1CC1 [VX-950]
- antiviral activity: has shown antiviral activity

Source: patent US20120014912A1, “PALATABLE PHARMACEUTICAL COMPOSITION” (VERTEX PHARMACEUTICALS INCORPORATED, priority 2010, published 2012)
